One assay has as its system CDK4. Also noted: method as in PMID 29357250. The following applies: cited from earlier work.
In the next assay the target is T1, FLT3 (Homo sapiens, UniProt P36888).
T1 construct: purchased Invitrogen/Life Technologies
T1 sequence (P36888 27-993): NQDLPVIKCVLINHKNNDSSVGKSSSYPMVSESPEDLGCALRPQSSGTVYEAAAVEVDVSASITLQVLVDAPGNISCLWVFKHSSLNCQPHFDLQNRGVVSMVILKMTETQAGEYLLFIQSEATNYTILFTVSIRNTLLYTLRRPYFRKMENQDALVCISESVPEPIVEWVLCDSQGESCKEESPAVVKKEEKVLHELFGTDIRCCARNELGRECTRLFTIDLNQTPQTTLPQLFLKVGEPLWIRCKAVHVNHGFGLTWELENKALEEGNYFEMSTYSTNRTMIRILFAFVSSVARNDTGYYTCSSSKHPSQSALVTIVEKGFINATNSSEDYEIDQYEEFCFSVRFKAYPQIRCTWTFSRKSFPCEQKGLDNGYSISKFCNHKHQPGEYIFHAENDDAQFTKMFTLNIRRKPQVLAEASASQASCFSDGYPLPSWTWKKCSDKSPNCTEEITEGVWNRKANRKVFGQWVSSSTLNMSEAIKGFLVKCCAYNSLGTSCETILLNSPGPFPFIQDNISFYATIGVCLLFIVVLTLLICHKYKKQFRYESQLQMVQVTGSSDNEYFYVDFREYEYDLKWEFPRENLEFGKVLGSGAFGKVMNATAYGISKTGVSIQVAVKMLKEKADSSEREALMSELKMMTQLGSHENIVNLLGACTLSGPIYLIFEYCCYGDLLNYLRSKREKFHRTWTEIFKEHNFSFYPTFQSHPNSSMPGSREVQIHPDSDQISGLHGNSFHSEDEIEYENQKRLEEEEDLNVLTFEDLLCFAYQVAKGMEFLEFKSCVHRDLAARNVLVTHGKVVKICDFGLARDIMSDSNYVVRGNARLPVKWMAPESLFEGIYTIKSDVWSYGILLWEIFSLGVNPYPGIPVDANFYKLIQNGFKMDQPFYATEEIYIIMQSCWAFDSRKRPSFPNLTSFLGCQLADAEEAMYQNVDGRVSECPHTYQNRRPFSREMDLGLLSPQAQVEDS
In words: Z'-LYTE kinase assay. The following applies: three separate experiments ± SD. Type of assay: biochemical. As for the experimental part:
(§1) The Z’-LYTE® technology, which relies on FRET (Fluorescence Resonance Energy Transfer) from Invitrogen/Life Technologies, was employed for this evaluation for all kinases except VEGFR-2. The VEGFR-2 kinase assay was conducted in a 96-well streptavidin-coated plate using a recombinant human VEGFR-2/KDR ELISA kit, following the manufacturer’s instructions. […] Statistical significance was assessed using one-way analysis of variance (ANOVA), followed by the Dunnett test; data are represented as means ± SD.

Another assay has as its target T2, CDK2 (Homo sapiens, UniProt P24941).
T2 construct: purchased Invitrogen/Life Technologies
As to the kind of experiment: Z'-LYTE kinase assay. In kind it is biochemical. The following applies: three separate experiments ± SD. The procedure: as §1

In another assay the test system is MV4-11 cell xenografts. Further details: method as in PMID 29357250. The conditions noted are these: cited from earlier work.
The subject of a further assay is CDK6. Also noted: method as in PMID 29357250. The conditions noted are these: cited from earlier work.
For assay [1], the system named is FLT3 ITD-mutated MV4-11 AML cells. Also noted: method as in PMID 36403191, PMID 37446914. The following applies: after 72 h; cited from earlier work.
For the next assay, the target named is FLT3 kinase. Also noted: method as in PMID 36403191, PMID 37446914. The conditions noted are these: cited from earlier work.
The subject of assay [2] is MCF-7 breast cancer cell line. Further details: method as in PMID 36844536. The following applies: cited from earlier work.
Assay [3] deals with MCF-12A normal breast cell line. Further details: method as in PMID 36844536. The following applies: cited from earlier work.

With `CN1CCN(Cc2ccc(NC(=O)c3n[nH]cc3Nc3ncnc4[nH]ccc34)cc2)CC1` [FN-1501, 4-((7H-Pyrrolo[2,3-d]pyrimidin-4-yl)amino)-N-(4-((4-methylpiperazin-1-yl)methyl)phenyl)-1H-pyrazole-3-carboxamide], the IC50 (in general, the midpoint of a concentration-inhibition curve) in the assay on CDK4 is 0.85 nM; against FLT3, 0.79 ± 0.08 nM; on CDK2, 1.99 ± 0.12 nM; in the assay with CDK6 it was 1.96 nM. Also, in the assay with MV4-11 cell xenografts, the “effectiveness in treating leukemia in mouse models” value is given as “remarkable effectiveness”.
As for `COc1cc(C=C2C(=O)Nc3ccccc32)ccc1O` [III], the IC50 in assay [1] is 4300 nM; on FLT3 kinase it was 2490 nM.
Turning to `COc1cc(C=C2C(=O)Nc3ccc(Cl)cc32)ccc1OCc1ccccn1` [IV], in assay [2], the IC50 is 17000 nM. Also, the “impact on the MCF-12A normal breast cell line” value in [3] is “no impact”.
